From ChEMBL document CHEMBL2074548, “Transport of digoxin by human P-glycoprotein expressed in a porcine kidney epithelial cell line (LLC-PK1)” (J Pharmacol Exp Ther, 1992)

Assays:
[1] = biological target: T1, ATP-dependent translocase ABCB1 (Homo sapiens, UniProt P08183); assay: TP_TRANSPORTER: transepithelial transport (basal to apical) in MDR1-expressing LLC-PK1 cells; assay type: functional, cell-based; conditions: pig
[2] = biological target: T1, ATP-dependent translocase ABCB1; assay: TP_TRANSPORTER: inhibition of Digoxin transepithelial transport (basal to apical)(Digoxin: 0.1uM, Vinblastine: 20 uM) in MDR1-expressing LLC-PK1 cells; assay type: functional, cell-based; conditions: pig, llc-pk1, 20 µM

T1 sequence (P08183 whole entry): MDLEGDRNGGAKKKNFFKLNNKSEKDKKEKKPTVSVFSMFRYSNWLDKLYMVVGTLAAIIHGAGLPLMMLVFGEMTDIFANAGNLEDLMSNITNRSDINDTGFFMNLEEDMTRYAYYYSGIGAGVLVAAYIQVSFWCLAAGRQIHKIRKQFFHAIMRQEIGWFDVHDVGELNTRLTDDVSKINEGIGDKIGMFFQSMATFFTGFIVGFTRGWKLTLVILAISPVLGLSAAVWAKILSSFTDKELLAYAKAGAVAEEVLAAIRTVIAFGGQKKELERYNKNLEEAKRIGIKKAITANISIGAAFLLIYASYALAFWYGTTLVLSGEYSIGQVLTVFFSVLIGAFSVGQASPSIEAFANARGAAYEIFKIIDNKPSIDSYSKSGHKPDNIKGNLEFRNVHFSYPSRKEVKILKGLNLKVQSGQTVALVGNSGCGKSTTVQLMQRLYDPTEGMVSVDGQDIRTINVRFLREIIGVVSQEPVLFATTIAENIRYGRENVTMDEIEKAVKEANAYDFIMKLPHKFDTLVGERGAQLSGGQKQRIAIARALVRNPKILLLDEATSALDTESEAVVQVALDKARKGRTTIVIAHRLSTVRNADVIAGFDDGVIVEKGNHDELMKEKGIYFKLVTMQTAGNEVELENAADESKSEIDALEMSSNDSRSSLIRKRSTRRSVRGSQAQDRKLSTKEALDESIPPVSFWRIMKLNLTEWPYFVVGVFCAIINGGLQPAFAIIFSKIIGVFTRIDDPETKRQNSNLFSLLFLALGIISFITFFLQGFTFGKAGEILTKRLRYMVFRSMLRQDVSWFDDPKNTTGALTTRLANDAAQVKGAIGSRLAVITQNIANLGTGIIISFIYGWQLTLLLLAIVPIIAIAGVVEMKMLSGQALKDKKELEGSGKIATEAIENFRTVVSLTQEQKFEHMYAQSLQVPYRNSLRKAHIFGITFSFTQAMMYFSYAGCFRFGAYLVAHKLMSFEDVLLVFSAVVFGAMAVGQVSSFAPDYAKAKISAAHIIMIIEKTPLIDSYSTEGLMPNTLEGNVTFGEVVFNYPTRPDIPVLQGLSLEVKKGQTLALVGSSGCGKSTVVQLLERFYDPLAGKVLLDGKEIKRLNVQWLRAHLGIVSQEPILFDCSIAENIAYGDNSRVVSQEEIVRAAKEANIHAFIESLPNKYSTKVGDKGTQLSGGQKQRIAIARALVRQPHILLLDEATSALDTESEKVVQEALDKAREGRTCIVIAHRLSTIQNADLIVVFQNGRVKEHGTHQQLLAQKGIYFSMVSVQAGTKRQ

Row | SMILES | Activity [1] | Activity [2]
1 | C[C@H]1O[C@@H](O[C@H]2[C@@H](O)C[C@H](O[C@H]3[C@@H](O)C[C@H](O[C@H]4CC[C@@]5(C)[C@H](CC[C@@H]6[C@@H]5C[C@@H](O)[C@]5(C)[C@@H](C7=CC(=O)OC7)CC[C@]65O)C4)O[C@@H]3C)O[C@@H]2C)C[C@H](O)[C@@H]1O [DIGOXIN] | substrate [+] | –
2 | CC[C@]1(O)C[C@@H]2CN(CCc3c([nH]c4ccccc34)[C@@](C(=O)OC)(c3cc4c(cc3OC)N(C)[C@H]3[C@@](O)(C(=O)OC)[C@H](OC(C)=O)[C@]5(CC)C=CCN6CC[C@]43[C@@H]65)C2)C1 [VINBLASTINE] | – | inhibitor [+]
